Data from patent US20070128217A1 (priority 2003, published 2007).

Legend:
[1] = system: control sera (pooled serum of ten healthy LUMC hospital workers; commercial negative donor pooled serum from the Dutch bloodbank); format: binding, human; parameters: Binding of Control serum LUMC to linear peptides / Binding of Control serum Blood-bank to linear peptides / Binding of Control serum LUMC to looped peptides / Binding of Control Serum Blood-Bank to Looped peptides / Binding of Control serum LUMC to linear peptides of the protein M of SARS-CoV Urbani / Binding of Control serum Blood-bank to linear peptides of the protein M of SARS-CoV Urbani / Binding of Control serum LUMC to looped peptides of the protein M of SARS-CoV Urbani / Binding of Control Serum Blood-Bank to Looped peptides of the protein M of SARS-CoV Urbani: unit not given here
[2] = system: antibodies in sera from SARS patients (sera 1a, 1b, 2, 6, 37, 62, London, SARS-yellow, SARS-green); format: binding, human; parameters: Binding of serum 6 to linear peptides of protein X1 of SARS-CoV Urbani / Binding of serum 37 to linear peptides of protein X1 of SARS-CoV Urbani / Binding of serum 6 to looped/cyclic peptide (PEPSCAN-ELISA) / Binding of serum 37 to looped/cyclic peptide (PEPSCAN-ELISA) / Binding of serum 37 to looped/cyclic peptides of protein X1 of SARS-CoV Urbani / Binding of serum 6 to linear peptides of protein X2 / Binding of serum 37 to linear peptides of protein X2 / Binding of serum 37 to looped/cyclic peptides of protein X2 of SARS-CoV Urbani / Binding of serum 6 to linear peptides of protein M of SARS-CoV Urbani / Binding of serum 37 to linear peptides of protein M of SARS-CoV Urbani / Binding of serum 6 to looped/cyclic peptides of protein M of SARS-CoV Urbani / Binding of serum 37 to looped/cyclic peptides of protein M of SARS-CoV Urbani / Binding of serum 6 to linear peptides of protein X3 of SARS-CoV Urbani / Binding of serum 37 to linear peptides of protein X3 of SARS-CoV Urbani / Binding of serum 37 to looped/cyclic peptides of protein X3 of SARS-CoV Urbani / Binding of serum 6 to linear peptides of protein X4 of SARS-CoV Urbani / Binding of serum 37 to linear peptides of protein X4 of SARS-CoV Urbani / Binding of serum 37 to looped/cyclic peptides of protein X4 of SARS-CoV Urbani / Binding of serum 6 to linear peptides of protein X5 of SARS-CoV Urbani / Binding of serum 37 to linear peptides of protein X5 of SARS-CoV Urbani / Binding of serum 37 to looped/cyclic peptides of protein X5 of SARS-CoV Urbani / Binding of serum 6 to linear peptides of protein N of SARS-CoV Urbani / Binding of serum 37 to linear peptides of protein N of SARS-CoV Urbani / Binding of serum 6 to linear peptide (PEPSCAN-ELISA) / Binding of serum 1a to looped/cyclic peptides of protein N of SARS-CoV Urbani / Binding of serum 1b to looped/cyclic peptides of protein N of SARS-CoV Urbani / Binding of serum 2 to looped/cyclic peptides of protein N of SARS-CoV Urbani / Binding of serum 6 to looped/cyclic peptides of protein N of SARS-CoV Urbani / Binding of serum 37 to looped/cyclic peptides of protein N of SARS-CoV Urbani / Binding of serum 62 to looped/cyclic peptides of protein N of SARS-CoV Urbani / Binding of serum London to looped/cyclic peptides of protein N of SARS-CoV Urbani / Binding of serum SARS-green to looped/cyclic peptides of protein N of SARS-CoV Urbani: unit not given here
[3] = system: rabbit serum obtained by immunizing a rabbit with the SARS-CoV strain Frankfurt 1; format: binding; parameters: Binding of a rabbit serum to linear peptides / Binding of a rabbit serum to looped peptides / Rabbit serum linear peptides / Rabbit serum looped peptides / Binding of a rabbit serum to linear peptides of protein N of SARS-CoV Urbani (Rabbit serum linear peptides) / Binding of a rabbit serum to looped/cyclic peptides of protein N of SARS-CoV Urbani (Rabbit serum looped peptides): unit not given here

With NPETNILLNVPLRGT the “Binding of Control Serum Blood-Bank to Looped peptides of the protein M of SARS-CoV Urbani” value [1] was 0.8, the “Binding of Control serum Blood-bank to linear peptides of the protein M of SARS-CoV Urbani” value [1] was 0.7 and the “Binding of Control serum LUMC to linear peptides of the protein M of SARS-CoV Urbani” value [1] was 0.4. The “Binding of Control serum LUMC to looped peptides of the protein M of SARS-CoV Urbani” value [1] was 0.9, the “Binding of serum 1a to linear peptides of protein M of SARS-CoV Urbani” value [2] was 0.8 and the “Binding of serum 1a to looped/cyclic peptides of protein M of SARS-CoV Urbani” value [2] was 0.8. The “Binding of serum 1b to linear peptides of protein M of SARS-CoV Urbani” value [2] was 0.6, the “Binding of serum 1b to looped/cyclic peptides of protein M of SARS-CoV Urbani” value [2] was 0.7 and the “Binding of serum 2 to linear peptides of protein M of SARS-CoV Urbani” value [2] was 0.8. For the same sequence, the “Binding of serum 2 to looped/cyclic peptides of protein M of SARS-CoV Urbani” value [2] was 0.9, the “Binding of serum 6 to linear peptides of protein M of SARS-CoV Urbani” value [2] was 0.3 and the “Binding of serum 6 to looped/cyclic peptides of protein M of SARS-CoV Urbani” value [2] was 0.7. The “Binding of serum 37 to linear peptides of protein M of SARS-CoV Urbani” value [2] was 0.9, the “Binding of serum 37 to looped/cyclic peptides of protein M of SARS-CoV Urbani” value [2] was 0.7 and the “Binding of serum 62 to linear peptides of protein M of SARS-CoV Urbani” value [2] was 0.9. The “Binding of serum 62 to looped/cyclic peptides of protein M of SARS-CoV Urbani” value [2] was 0.7, the “Binding of serum London to linear peptides of protein M of SARS-CoV Urbani” value [2] was 0.3 and the “Binding of serum London to looped/cyclic peptides of protein M of SARS-CoV Urbani” value [2] was 0.3. For the same sequence, the “Binding of serum SARS-green to linear peptides of protein M of SARS-CoV Urbani” value [2] was 0.3, the “Binding of serum SARS-green to looped/cyclic peptides of protein M of SARS-CoV Urbani” value [2] was 0.4 and the “Binding of serum SARS-yellow to linear peptides of protein M of SARS-CoV Urbani” value [2] was 0.1. The “Binding of serum SARS-yellow to looped/cyclic peptides of protein M of SARS-CoV Urbani” value [2] was 0.7, the “Rabbit serum linear peptides” value [3] was 0.4 and the “Rabbit serum looped peptides” value [3] was 0.2.

With RYNTRGNTYSTAWLC the “Binding of Control Serum Blood-Bank to Looped peptides” value [1] was 0.0, the “Binding of Control serum Blood-bank to linear peptides” value [1] was 0.7 and the “Binding of Control serum LUMC to linear peptides” value [1] was 0.3. For the same sequence, the “Binding of Control serum LUMC to looped peptides” value [1] was 0.1, the “Binding of serum 1a to linear peptides of protein X5 of SARS-CoV Urbani” value [2] was 0.8 and the “Binding of serum 1a to looped/cyclic peptides of protein X5 of SARS-CoV Urbani” value [2] was 0.5. For the same sequence, the “Binding of serum 1b to linear peptides of protein X5 of SARS-CoV Urbani” value [2] was 0.4, the “Binding of serum 1b to looped/cyclic peptides of protein X5 of SARS-CoV Urbani” value [2] was 0.0 and the “Binding of serum 2 to linear peptides of protein X5 of SARS-CoV Urbani” value [2] was 0.5. The “Binding of serum 2 to looped/cyclic peptides of protein X5 of SARS-CoV Urbani” value [2] was 0.3, the “Binding of serum 6 to linear peptides of protein X5 of SARS-CoV Urbani” value [2] was 0.9 and the “Binding of serum 6 to looped/cyclic peptides of protein X5 of SARS-CoV Urbani” value [2] was 0.1. For the same sequence, the “Binding of serum 37 to linear peptides of protein X5 of SARS-CoV Urbani” value [2] was 0.4, the “Binding of serum 37 to looped/cyclic peptides of protein X5 of SARS-CoV Urbani” value [2] was 0.0 and the “Binding of serum 62 to linear peptides of protein X5 of SARS-CoV Urbani” value [2] was 0.7. The “Binding of serum 62 to looped/cyclic peptides of protein X5 of SARS-CoV Urbani” value [2] was 0.2, the “Binding of serum London to linear peptides of protein X5 of SARS-CoV Urbani” value [2] was 1.0 and the “Binding of serum London to looped/cyclic peptides of protein X5 of SARS-CoV Urbani” value [2] was 0.2. For the same sequence, the “Binding of serum SARS-green to linear peptides of protein X5 of SARS-CoV Urbani” value [2] was 0.6, the “Binding of serum SARS-green to looped/cyclic peptides of protein X5 of SARS-CoV Urbani” value [2] was 0.1 and the “Binding of serum SARS-yellow to linear peptides of protein X5 of SARS-CoV Urbani” value [2] was 0.2. For the same sequence, the “Binding of serum SARS-yellow to looped/cyclic peptides of protein X5 of SARS-CoV Urbani” value [2] was 0.6, the “Rabbit serum linear peptides” value [3] was 0.7 and the “Rabbit serum looped peptides” value [3] was 0.0.
